According to patent publication US11697650B2, “Compounds having tetrahydroindolizine-1-carboxamide as BCL-2 inhibitors” (Eil Therapeutics, Inc., priority 2021, dated 2023):

Tests used:
[1] = test system: caspase-3 and -7 activities in RS4-11 cells; assay: Caspase-3/7 activation (Caspase-Glo 3/7) in RS4-11 cells; format: cell-based; details: Homo sapiens, 3.5 h incubation, read-out: Cas-3/7 (EC50 code)
Experimental: The Caspase-Glo 3/7 Assay is homogeneous, luminescent assay that measures caspase-3 and -7 activities. The assay provides a luminogenic caspase-3/7 substrate, which contains the tetrapeptide sequence DEVD, in a reagent optimized for caspase activity.
Incubate RS4-11 cells with varying concentrations of test compounds for 3.5 h in a humidified incubator at 37° C. and 5% CO2 and 30 min at r.t. Add 15 μl Caspase-Glo reagent to each well and incubate the plate for 30 min at r.t. Read on ClarioStar Plus instrument.
Promega Caspase-Glo (Promega, #8212); Frozen RS4-11 cells; 384-well white plate (Corning, #3570).
ClarioStar Plus; Biomek FX for liquid handling (Beckman Coulter).

MOLT-4 cells = assay: Cell viability assay (CellTiter-Glo), MOLT-4; format: cell-based; details: Homo sapiens, 72 h, 3 days, read-out: MOLT-4 (CC50 code)
Experimental: (§1) Culture medium for HEK293—DMEM (PanEco, Cat #C420) was used. RPMI-1640 (PanEco, Cat #C363) was used for the rest of the cell lines.
(§2) Compounds were prepared as 200× stocks with serial dilution in 100% DMSO with a final concentration of 1×.
(§3) […] were dispersed in 40 μL aliquots in 384-well plates at a concentration of 2000 cells per well for HEK293 and at a concentration of 4000 cells per well for the rest of the cell lines using a robotic station Biomek (Beckman). Before adding compounds, the cells were incubated at 37° C. (HEK293 were incubated for a day before adding compounds).
(§4) A dilution plate was prepared by pouring 78 μL of the appropriate culture medium using a robotic station Biomek (Beckman). Sequentially, using a robotic station, 2 μL of substances were taken and added to 78 μL of culture medium (dilution of compounds 40×). 10 μL aliquots were taken and added to the plates of the cells (dilution of compounds 5×). The plates were incubated for 3 days at a temperature 37° C. After 3 days, 10 μL of CellTiter-Glo (Promega) was added to the cells and the luminescence was measured.

[2] = Cell viability assay (CellTiter-Glo), HEK293; format: cell-based; details: human, HEK293 cells, read-out: HEK293 (CC50 code)
Experimental: as §1, §2, §3, §4

RS4-11 cells = assay: Cell viability assay (CellTiter-Glo), RS4-11; format: cell-based; details: Homo sapiens, 72 h, 3 days, read-out: RS4-11 (CC50 code)
Experimental: as §1, §2, §3, §4

BCL-2 = BCL-2 (Homo sapiens (Human), UniProt P10415); assay: BCL-2 TR-FRET Assay (primary PPI inhibition); format: binding; details: 60 min incubation; read-out: BCL2 (IC50 code, BCL-2 TR-FRET)
Sequence of BCL-2 (P10415 whole entry): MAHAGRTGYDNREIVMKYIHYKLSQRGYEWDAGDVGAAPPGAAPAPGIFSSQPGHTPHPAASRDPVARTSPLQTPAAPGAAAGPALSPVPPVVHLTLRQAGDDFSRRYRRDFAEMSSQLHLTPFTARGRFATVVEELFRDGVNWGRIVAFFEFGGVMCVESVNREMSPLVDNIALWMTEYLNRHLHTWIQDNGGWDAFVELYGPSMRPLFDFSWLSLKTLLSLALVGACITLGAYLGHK
Experimental: BCL-2 TR-FRET Assay (BPS Bioscience, #50222)
(§5) The following assay concentrations and times were used: 3 ng BCL-2, 5 μl of 1:100 anti-His Tb-labeled donor, 5 μl of 1:100 Dye-labeled acceptor, 5 μl of 1:40 BCL-2 Peptide Ligand, and 2 ul of test compound, with 60 min incubation time. The results of the assay were read using a Clariostar (BMG Labtech) plate reader with the following parameters: TR FRET, 340ex/620 and 665em; 60 μsec Delay; and 500 μsec integration.

BCL-XL = BCL-XL (Homo sapiens (Human), UniProt Q07817); assay: BCL-XL TR-FRET Assay (primary PPI inhibition); format: binding; details: 60 min incubation; read-out: BCLxL (IC50 code, BCL-XL TR-FRET)
Sequence of BCL-XL (Q07817 whole entry): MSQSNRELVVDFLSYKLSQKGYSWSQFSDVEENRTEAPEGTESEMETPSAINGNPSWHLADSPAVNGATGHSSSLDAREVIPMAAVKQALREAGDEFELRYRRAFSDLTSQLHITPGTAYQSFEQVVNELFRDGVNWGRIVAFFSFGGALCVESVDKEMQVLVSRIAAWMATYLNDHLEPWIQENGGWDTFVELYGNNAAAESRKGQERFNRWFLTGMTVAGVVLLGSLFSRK
Experimental: BCL-XL TR-FRET Assay (BPS Bioscience, #50223)
as §5, with “used: 10.5” for “used: 3”, “ng BCL-XL,” for “ng BCL-2,”, “of 1:80 BCL-XL” for “of 1:40 BCL-2”, “2 μl” for “2 ul”

## O=C(c1cc(-c2cc3c(cc2C(=O)N2Cc4ccccc4C[C@H]2CN2CCOCC2)OCO3)n2c1CCCC2)N(Cc1c(F)cccc1F)c1ccc(O)cc1 [Compound 19, N-(2,6-difluorobenzyl)-N-(4-hydroxyphenyl)-3-(6-{[(3S)-3-(morpholin-4-ylmethyl)-3,4-dihydroisoquinolin-2(1H)-yl]carbonyl}-1,3-benzodioxol-5-yl)-5,6,7,8-tetrahydroindolizine-1-carboxamide]
[1]
  EC50: > 250 nM
MOLT-4 cells
  CC50: 2000 to 10000 nM
[2]
  CC50 at 3 days: > 25000 nM
RS4-11 cells
  CC50: > 200 nM
BCL-2
  IC50: 5 to 10 nM
BCL-XL
  IC50: > 4000 nM

## Cc1ccc(CN(C(=O)c2cc(-c3cc4c(cc3C(=O)N3Cc5ccccc5C[C@H]3CN3CCOCC3)OCO4)n3c2CCCC3)c2ccc(O)cc2)cc1 [Compound 20, N-(4-hydroxyphenyl)-N-(4-methylbenzyl)-3-(6-{[(3S)-3-(morpholin-4-ylmethyl)-3,4-dihydroisoquinolin-2(1H)-yl]carbonyl}-1,3-benzodioxol-5-yl)-5,6,7,8-tetrahydroindolizine-1-carboxamide]
[1]
  EC50: > 250 nM
MOLT-4 cells
  CC50: 2000 to 10000 nM
[2]
  CC50 at 3 days: ≤ 10000 nM
RS4-11 cells
  CC50: 100 to 200 nM
BCL-2
  IC50: 5 to 10 nM
BCL-XL
  IC50: 2000 to 4000 nM

## O=C(c1cc(-c2cc3c(cc2C(=O)N2Cc4ccccc4C[C@H]2CN2CCOCC2)OCO3)n2c1CCCC2)N(Cc1ccccc1C(F)(F)F)c1ccc(O)cc1 [Compound 5, N-(4-hydroxyphenyl)-3-(6-{[(3S)-3-(morpholin-4-ylmethyl)-3,4-dihydroisoquinolin-2(1H)-yl]carbonyl}-1,3-benzodioxol-5-yl)-N-[2-(trifluoromethyl)benzyl]-5,6,7,8-tetrahydroindolizine-1-carboxamide]
[1]
  EC50: ≤ 100 nM
MOLT-4 cells
  CC50: 2000 to 10000 nM
[2]
  CC50 at 3 days: > 25000 nM
RS4-11 cells
  CC50: ≤ 100 nM
BCL-2
  IC50: ≤ 5 nM
BCL-XL
  IC50: ≤ 2000 nM

## COc1ccccc1CN(C(=O)c1cc(-c2cc3c(cc2C(=O)N2Cc4ccccc4C[C@H]2CN2CCOCC2)OCO3)n2c1CCCC2)c1ccc(O)cc1 [Compound 31, N-(4-hydroxyphenyl)-N-(2-methoxybenzyl)-3-(6-{[(3S)-3-(morpholin-4-ylmethyl)-3,4-dihydroisoquinolin-2(1H)-yl]carbonyl}-1,3-benzodioxol-5-yl)-5,6,7,8-tetrahydroindolizine-1-carboxamide]
[1]
  EC50: ≤ 100 nM
MOLT-4 cells
  CC50: ≤ 2000 nM
[2]
  CC50 at 3 days: > 25000 nM
RS4-11 cells
  CC50: ≤ 100 nM
BCL-2
  IC50: ≤ 5 nM
BCL-XL
  IC50: ≤ 2000 nM

## Cn1cnnc1CN(C(=O)c1cc(-c2cc3c(cc2C(=O)N2Cc4ccccc4C[C@H]2CN2CCOCC2)OCO3)n2c1CCCC2)c1ccc(O)cc1 [Compound 48, N-(4-Hydroxyphenyl)-N-[(4-methyl-1,2,4-triazol-3-yl)methyl]-3-[6-[(3S)-3-(morpholinomethyl)-3,4-dihydro-1H-isoquinoline-2-carbonyl]-1,3-benzodioxol-5-yl]-5,6,7,8-tetrahydroindolizine-1-carboxamide]
[1]
  EC50: ≤ 100 nM
MOLT-4 cells
  CC50: 2000 to 10000 nM
[2]
  CC50 at 3 days: 10000 to 25000 nM
RS4-11 cells
  CC50: ≤ 100 nM
BCL-2
  IC50: ≤ 5 nM
BCL-XL
  IC50: ≤ 2000 nM

## Cc1cc(C(F)(F)F)ccc1CN(C(=O)c1cc(-c2cc3c(cc2C(=O)N2Cc4ccccc4C[C@H]2CN2CCOCC2)OCO3)n2c1CCCC2)c1ccc(O)cc1 [Compound 37, N-(4-hydroxyphenyl)-N-[2-methyl-4-(trifluoromethyl)benzyl]-3-(6-{[(3S)-3-(morpholin-4-ylmethyl)-3,4-dihydroisoquinolin-2(1H)-yl]carbonyl}-1,3-benzodioxol-5-yl)-5,6,7,8-tetrahydroindolizine-1-carboxamide]
[1]
  EC50: 100 to 250 nM
MOLT-4 cells
  CC50: 2000 to 10000 nM
[2]
  CC50 at 3 days: > 25000 nM
RS4-11 cells
  CC50: ≤ 100 nM
BCL-2
  IC50: 5 to 10 nM
